Tested on: Sprague-Dawley rats
Assay: Clinical chemistry
Assay type: in vivo, Rattus norvegicus
Design: key to Cholesterol, Dose response / Triglyserides, Dose response / Glucose, Dose response / Albumin, Dose response / K, Dose response / Total bilirubin, Dose response: D: significant dose response (for results, see Table 2); T: significant trend
Details: for Alkaline phosphatase, CED / Alkaline phosphatase, CED-L / Chlolesterol, CED / Chlolesterol, CED-L / Glucose, CED / Glucose, CED-L / Potassium, CED / Potassium, CED-L / Total Bilirubin, CED / Total Bilirubin, CED-L / Albumin, CED / Albumin, CED-L / Total protein, CED / Total protein, CED-L / Triglycerides, CED / Triglycerides, CED-L: total dose based
Description: Spectrophotometric methods were used for the determination of serum total calcium, cholesterol, creatinine, glucose, triglycerides and urea. Serum sodium, potassium and chloride concentrations were measured directly by ion selective electrodes. The analyses were performed by a clinical chemistry analyzer (Konelab 30i, ThermoFisher Scientific, Vantaa, Finland). Plasma lactate dehydrogenase (LD) activity was measured according to the recommendations of the International Federation of Clinical Chemistry (IFCC 1994/I) using Konelab 60i clinical chemistry analyzer. Methods and results for liver related parameters (serum alanine aminotransferase [ALT] activity, alkaline phosphatase [ALP] activity, albumin, total protein and total bilirubin are reported separately.
Data were also analyzed using the BMD method, which is based on dose-response modeling of the full data set using a nested family of exponential and Hill models. The analyses were done on data of males and females combined, using sex as a covariate. […] In that case, different Critical Effect Doses (CEDs) and CEDs at the lowest bound of the confidence interval (CED-L) were generated for each sex. If no difference between sexes is detected, a CED and CED-Ls for the combined data is generated. However, this was also done if the curve fits are close, and separate analyses for males and females were then performed manually. CEDs and CED-Ls were calculated at the predefined Critical Effect Size (CES) of 5% (EFSA standard) or 10%.

[1] = females, total dose 1700 mg/kg bw
[2] = females, adipose tissue concentration based
[3] = males, total dose 0-1700 mg/kg bw
[4] = males, total dose 1000 mg/kg bw
[5] = males, total dose 1700 mg/kg bw
[6] = males, adipose tissue concentration based

## Clc1cc(Cl)c(-c2cc(Cl)c(Cl)c(Cl)c2Cl)cc1Cl [PCB 180, 2,2′,3′,4,4′,5,5′-heptachlorobiphenyl]
[1]
  Creatinine: 52.5 µmol/L
  Glucose: 12.4 mmol/L
  K: 5.30 mmol/L
  Na: 143.2 mmol/L
  Total Ca: 3.49 mmol/L
  Total bilirubin: 1.37 µmol/L
  Triglyserides: 0.88 mmol/L
  Urea: 10.0 mmol/L
females, CES 5%
  Alkaline phosphatase, CED: 67.6 mg/kg bw
  Alkaline phosphatase, CED-L: 30.1 mg/kg bw
  Chlolesterol, CED: 192 mg/kg bw
  Chlolesterol, CED-L: 167 mg/kg bw
  Glucose, CED: 677 mg/kg bw
  Glucose, CED-L: 408 mg/kg bw
  Potassium, CED: 1210 mg/kg bw
  Potassium, CED-L: 786 mg/kg bw
  Total Bilirubin, CED: 4.12 mg/kg bw
  Total Bilirubin, CED-L: 0.67 mg/kg bw
females, CES 10%
  Alkaline phosphatase, CED: 154 mg/kg bw
  Alkaline phosphatase, CED-L: 68.5 mg/kg bw
  Chlolesterol, CED: 375 mg/kg bw
  Chlolesterol, CED-L: 326 mg/kg bw
  Glucose, CED: 1390 mg/kg bw
  Glucose, CED-L: 839 mg/kg bw
  Potassium, CED: 2490 mg/kg bw
  Potassium, CED-L: 1614 mg/kg bw
  Total Bilirubin, CED: 10.3 mg/kg bw
  Total Bilirubin, CED-L: 1.63 mg/kg bw
[2]
  Serum ALP activity, CED: 308 µg/g lipid
  Serum cholesterol, CED: 640 µg/g lipid
[3]
  Albumin, Dose response: T
  Cholesterol, Dose response: T
  Glucose, Dose response: T
  Triglyserides, Dose response: T
males, total dose 3 mg/kg bw
  Albumin: 32.6 g/L
  Cholesterol: 2.72 mmol/L
  Cl: 96.9 mmol/L
  Creatinine: 54.2 µmol/L
  Glucose: 18.9 mmol/L
  K: 5.76 mmol/L
  Na: 143.1 mmol/L
  Total Ca: 3.43 mmol/L
  Total bilirubin: 2.02 µmol/L
  Triglyserides: 0.84 mmol/L
  Urea: 9.0 mmol/L
males, total dose 10 mg/kg bw
  Albumin: 32.9 g/L
  Cholesterol: 2.84 mmol/L
  Cl: 96.8 mmol/L
  Creatinine: 51.5 µmol/L
  Glucose: 14.9 mmol/L
  K: 6.12 mmol/L
  Na: 143.0 mmol/L
  Total Ca: 3.41 mmol/L
  Total bilirubin: 1.58 µmol/L
  Triglyserides: 0.88 mmol/L
  Urea: 8.2 mmol/L
males, total dose 30 mg/kg bw
  Albumin: 32.8 g/L
  Cholesterol: 2.74 mmol/L
  Cl: 96.0 mmol/L
  Creatinine: 53.8 µmol/L
  Glucose: 18.6 mmol/L
  K: 5.93 mmol/L
  Na: 142.9 mmol/L
  Total Ca: 3.44 mmol/L
  Total bilirubin: 1.46 µmol/L
  Triglyserides: 0.65 mmol/L
  Urea: 9.3 mmol/L
males, total dose 100 mg/kg bw
  Albumin: 33.1 g/L
  Cholesterol: 3.56 mmol/L
  Cl: 96.3 mmol/L
  Creatinine: 53.4 µmol/L
  Glucose: 17.8 mmol/L
  K: 5.74 mmol/L
  Na: 143.0 mmol/L
  Total Ca: 3.58 mmol/L
  Total bilirubin: 1.54 µmol/L
  Triglyserides: 0.34 mmol/L
  Urea: 9.2 mmol/L
males, total dose 300 mg/kg bw
  Albumin: 32.5 g/L
  Cholesterol: 3.44 mmol/L
  Cl: 96.3 mmol/L
  Creatinine: 52.6 µmol/L
  Glucose: 17.7 mmol/L
  K: 5.73 mmol/L
  Na: 142.7 mmol/L
  Total Ca: 3.46 mmol/L
  Total bilirubin: 1.73 µmol/L
  Triglyserides: 0.36 mmol/L
  Urea: 9.0 mmol/L
[4]
  Albumin: 34.2 g/L
  Cholesterol: 4.35 mmol/L
  Cl: 95.7 mmol/L
  Creatinine: 53.8 µmol/L
  Glucose: 11.8 mmol/L
  K: 6.12 mmol/L
  Na: 142.6 mmol/L
  Total Ca: 3.45 mmol/L
  Total bilirubin: 1.84 µmol/L
  Triglyserides: 0.32 mmol/L
  Urea: 9.9 mmol/L
[5]
  Albumin: 34.4 g/L
  Cholesterol: 5.15 mmol/L
  Cl: 97.7 mmol/L
  Creatinine: 55.4 µmol/L
  Glucose: 12.7 mmol/L
  K: 5.89 mmol/L
  Na: 143.4 mmol/L
  Total Ca: 3.53 mmol/L
  Total bilirubin: 1.87 µmol/L
  Triglyserides: 0.44 mmol/L
  Urea: 9.1 mmol/L
males, CES 5%
  Albumin, CED: 1550 mg/kg bw
  Albumin, CED-L: 1090 mg/kg bw
  Alkaline phosphatase, CED: 542 mg/kg bw
  Alkaline phosphatase, CED-L: 327 mg/kg bw
  Chlolesterol, CED: 38.3 mg/kg bw
  Chlolesterol, CED-L: 19.5 mg/kg bw
  Glucose, CED: 198 mg/kg bw
  Glucose, CED-L: 146 mg/kg bw
  Total protein, CED: 255 mg/kg bw
  Total protein, CED-L: 134 mg/kg bw
  Triglycerides, CED: 3.31 mg/kg bw
  Triglycerides, CED-L: 1.90 mg/kg bw
males, CES 10%
  Albumin, CED: 3040 mg/kg bw
  Albumin, CED-L: 2130 mg/kg bw
  Alkaline phosphatase, CED: 1110 mg/kg bw
  Alkaline phosphatase, CED-L: 672 mg/kg bw
  Chlolesterol, CED: 79.0 mg/kg bw
  Chlolesterol, CED-L: 40.4 mg/kg bw
  Glucose, CED: 408 mg/kg bw
  Glucose, CED-L: 300 mg/kg bw
  Total protein, CED: 702 mg/kg bw
  Total protein, CED-L: 379 mg/kg bw
  Triglycerides, CED: 6.92 mg/kg bw
  Triglycerides, CED-L: 3.97 mg/kg bw
[6]
  Serum chlolesterol, CED-L: 91400 ng/g lipid
  Serum cholesterol, CED: 177 µg/g lipid
  Serum total protein, CED: 1080 µg/g lipid
  Serum triglyceride, CED: 12.5 µg/g lipid
  Serum triglycerids, CED-L: 7260 ng/g lipid
